From patent US6114334A, “Piperazine derivatives as therapeutic agents” (Knoll Aktiengesellschaft, priority 1995, dated 2000)

How the values were obtained:
5-HT1A receptors = biological target: T1, 5-HT1A receptors (Rattus norvegicus, UniProt P19327); assay: inhibition of [3H]8-OH-DPAT binding to 5-HT1A receptors in vitro; set-up: species or system rat (male Sprague-Dawley, hippocampal tissue); conditions: rat hippocampus; for Ki: [3H]8-OH-DPAT 2 nM, 25° C., 30 min
T1 sequence (P19327 1-422): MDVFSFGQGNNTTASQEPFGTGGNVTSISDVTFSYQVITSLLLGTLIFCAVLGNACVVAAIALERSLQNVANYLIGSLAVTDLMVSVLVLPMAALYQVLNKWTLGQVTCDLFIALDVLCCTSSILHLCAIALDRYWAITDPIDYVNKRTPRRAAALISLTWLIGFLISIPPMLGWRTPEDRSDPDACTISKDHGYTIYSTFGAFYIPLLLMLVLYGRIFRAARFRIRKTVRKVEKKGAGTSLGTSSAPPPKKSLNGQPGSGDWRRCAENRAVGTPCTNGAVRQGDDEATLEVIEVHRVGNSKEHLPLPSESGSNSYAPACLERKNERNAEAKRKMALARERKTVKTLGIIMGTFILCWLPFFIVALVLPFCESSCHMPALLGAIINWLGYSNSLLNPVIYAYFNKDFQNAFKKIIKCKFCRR

α2A-adrenoceptors = biological target: T2, α2A-adrenoceptors (Homo sapiens, UniProt P08913); assay: inhibition of tritiated RX 821002 binding to α2A-adrenoceptors in vitro; set-up: species or system human (cerebral cortex post-mortem); conditions: 10^-6 M, human cerebral cortex, [3H]RX 821002; read-out: % displacement at 10^-6 M, α2A
T2 construct: Human cerebral cortex obtained at post-mortem; from tissue; host or cells: human cerebral cortex, post-mortem
T2 sequence (P08913 1-465): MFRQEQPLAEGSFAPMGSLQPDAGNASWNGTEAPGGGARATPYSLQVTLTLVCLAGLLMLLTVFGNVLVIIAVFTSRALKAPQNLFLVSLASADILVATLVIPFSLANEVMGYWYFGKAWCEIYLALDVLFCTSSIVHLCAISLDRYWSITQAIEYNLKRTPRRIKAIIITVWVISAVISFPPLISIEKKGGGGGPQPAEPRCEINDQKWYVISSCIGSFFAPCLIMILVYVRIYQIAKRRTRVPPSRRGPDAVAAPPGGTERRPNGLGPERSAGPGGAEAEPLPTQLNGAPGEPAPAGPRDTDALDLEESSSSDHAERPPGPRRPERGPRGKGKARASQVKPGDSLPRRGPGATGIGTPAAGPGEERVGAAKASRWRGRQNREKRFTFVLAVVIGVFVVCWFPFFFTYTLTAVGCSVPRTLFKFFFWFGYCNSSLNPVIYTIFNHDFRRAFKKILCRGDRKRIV
Method: Human cerebral cortex obtained at post-mortem was homogenised in ice-cold 0.25M sucrose (1:30 w/v) and centrifuged at 1,000 g at 4° C. for 12 minutes. The supernatant was stored on ice and the pellet was rehomogenised in 0.25M sucrose (1:15 w/v) and centrifuged at 850 g at 4° C. for 12 minutes. Combined supernatants were diluted with 5 mM Tris-HCl (pH 7.5) containing 5 mM ethylenediamine tetraacetic acid (EDTA), readjusted to pH 7.5 (at 25° C.) with 1M sodium hydroxide to 1:80 w/v, and centrifuged at 11,000 g at 4° C. for 10 minutes. The resulting pellet was resuspended in 50 mM Tris-HCl (pH 7.5) containing 5.68 mM L-ascorbic acid and 0.5 mM EDTA, readjusted to pH 7.5 (at 25° C.) with 1M sodium hydroxide to 1:80 w/v, and centrifuged at 11,000 g for 10 minutes. The pellet was stored at -80° C. On the day of the assay the pellet was thawed, resuspended in 50 mM Tris-HCl (pH 7.5) containing 5.68 mM L-ascorbic acid and 5 mM EDTA to 1:80 w/v and centrifuged at 11,000 g for 10 minutes. The final pellet was resuspended in 50 mM Tris-HCl (pH 7.5) containing 5.68 mM L-ascorbic acid and 5 mM EDTA (equivalent to 25 mg wet weight of tissue/ml).
Aliquots (400 μl; equivalent to 10 mg wet weight of tissue/tube) of this suspension were added to tubes containing the ligand (50 μl; 0.2 nM) and distilled water (50 μl; total binding) or phentolamine (50 μl; 50 μM; non-specific binding) or test compound (50 μl; at a single concentration of 10^-6 M or at 10 concentrations ranging from 10^-11 -10^-3 M). The ligand was tritiated RX 821002 (2-(2-methoxy-1,4-[6,7(n)-^3 H]benzodioxan-2-yl)-2-imidazoline) and the mixture was incubated at 0° C. for 75 minutes before the incubation was terminated by rapid filtration.
The filters were washed with ice-cold Tris-HCl buffer and dried. The filters were punched out into vials, scintillation fluid added and radioactivity determined by liquid scintillation counting. The percentage displacement of specific binding of the tritiated ligand was calculated for the single concentration (10^-6 M) of test compound. Displacement curves were then produced for those compounds which displaced ≥50% of specific binding of the tritiated ligand at 10^-6 M using a range of concentrations of the compound. The concentration which gave 50% inhibition of specific binding (IC50) was obtained from the curve. The inhibition coefficient Ki was then calculated using the formula [formula] in which [ligand] is the concentration of the tritiated ligand used and KD is the equilibrium dissociation constant for the ligand.

α2D-adrenoceptors = biological target: T3, α2D-adrenoceptors (Rattus norvegicus, UniProt P22909); assay: inhibition of tritiated idazoxan binding to α2D-adrenoceptors in vitro; set-up: species or system rat (male Charles River CD, frontal cortical tissue); conditions: rat frontal cortex; for Ki: [3H]idazoxan 1 nM, 0° C., 75 min; for inhibition at 1 µM: 10^-6 M, [3H]idazoxan, read-out: % displacement at 10^-6 M, α2D
T3 sequence (P22909 1-465): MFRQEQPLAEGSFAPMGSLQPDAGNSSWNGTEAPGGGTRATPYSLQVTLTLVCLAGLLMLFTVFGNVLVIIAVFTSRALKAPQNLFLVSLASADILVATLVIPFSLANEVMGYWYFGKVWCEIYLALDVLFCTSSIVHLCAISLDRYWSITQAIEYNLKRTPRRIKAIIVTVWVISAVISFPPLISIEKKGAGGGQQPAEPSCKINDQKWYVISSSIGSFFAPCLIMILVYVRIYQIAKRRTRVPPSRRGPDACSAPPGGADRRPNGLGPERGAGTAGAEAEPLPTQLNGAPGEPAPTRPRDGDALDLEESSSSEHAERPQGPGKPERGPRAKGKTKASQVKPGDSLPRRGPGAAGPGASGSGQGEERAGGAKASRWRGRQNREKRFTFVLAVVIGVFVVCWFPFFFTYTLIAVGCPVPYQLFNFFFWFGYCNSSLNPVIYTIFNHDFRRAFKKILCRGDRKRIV

α1-adrenoceptors = assay: inhibition of 7-methoxy-[3H]prazosin binding to α1-adrenoceptors in vitro; set-up: species or system rat (male Charles River CD, whole cortical tissue); conditions: rat whole cortex, 30 min; for Ki: 7-methoxy-[3H]prazosin 0.1 nM, 30° C.
How it was run: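 Male CD rat cortical membranes in 50 mM Tris-HCl pH 7.6 were incubated 30 min at 30 °C with 7-methoxy-[3H]prazosin (0.1 nM as added), with 5 μM phentolamine (as added) defining non-specific binding, then filtered and counted. Compounds were tested at 10^-6 M for % displacement or at 10^-11–10^-3 M for IC50, and Ki was derived from IC50, ligand concentration and KD.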

D2 dopamine receptors = D2 dopamine receptors (Rattus norvegicus, UniProt P61169); assay: inhibition of tritiated (S)-sulpiride binding to D2 dopamine receptors in vitro; set-up: species or system rat (male Charles River CD, striatal tissue); conditions: rat striatum, tritiated (S)-sulpiride 1 nM, 4° C., 40 min
D2 dopamine receptors, sequence (P61169 whole entry): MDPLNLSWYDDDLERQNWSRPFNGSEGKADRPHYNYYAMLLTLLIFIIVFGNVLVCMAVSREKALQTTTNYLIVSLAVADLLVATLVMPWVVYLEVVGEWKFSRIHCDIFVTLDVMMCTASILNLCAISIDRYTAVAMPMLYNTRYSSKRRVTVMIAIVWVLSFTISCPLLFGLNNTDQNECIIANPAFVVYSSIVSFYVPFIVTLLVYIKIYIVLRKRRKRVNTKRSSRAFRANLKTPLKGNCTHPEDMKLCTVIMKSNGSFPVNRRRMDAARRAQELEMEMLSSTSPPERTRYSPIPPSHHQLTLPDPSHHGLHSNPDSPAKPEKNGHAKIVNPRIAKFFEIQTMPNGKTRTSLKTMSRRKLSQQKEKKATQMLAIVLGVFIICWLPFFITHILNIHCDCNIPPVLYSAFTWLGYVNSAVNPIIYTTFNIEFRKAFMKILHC

Structure (SMILES) | Ki (5-HT1A receptors) [nM] | inhibition at 1 µM (α2A-adrenoceptors) [%] | Ki (α2D-adrenoceptors) [nM] | Ki (α1-adrenoceptors) [nM] | Ki (D2 dopamine receptors) [nM] | inhibition at 1 µM (α2D-adrenoceptors) [%] | inhibition at 1 µM (5-HT1A receptors; 10^-6 M, [3H]8-OH-DPAT, read-out: % displacement at 10^-6 M, 5-HT1A) [%] | % displacement at 10^-6 M, α1 (α1-adrenoceptors; 10^-6 M, 7-methoxy-[3H]prazosin, 1 µM) [%]
Cn1nc(-c2ccccc2)c(CN2CCN(c3cccc4c3OCCO4)CC2)c1N [Example 13, 5-Amino-4-[4-(1,4-benzodioxan-5-yl)piperazin-1-ylmethyl]-1-methyl-3-phenylpyrazole] | 21 | 95 | 156 | 57 | > 500 |  |  | 
Nc1nn(-c2ccccc2)c(N)c1CN1CCN(c2cccc3c2OCCO3)CC1 [Example 11, 3,5-diamino-4-[4-(1,4-benzodioxan-5-yl)piperazin-1-ylmethyl]-1-phenylpyrazole] | 16 | 85 | 60 | > 500 | 309 |  |  | 
C=CCn1c(N)c(CN2CCN(c3cccc4c3OCCO4)CC2)c(=O)n1-c1ccccc1 [Example 6, 2-Allyl-3-amino-4-[4-(1,4-benzodioxan-5-yl)piperazin-1-ylmethyl]-1-phenyl-3-pyrazolin-5-one] | 22 | 86 | 111 | 45 | 139 |  |  | 
Nc1c(CN2CCN(c3cccc4c3OCCO4)CC2)c(C2CC2)nn1-c1ccccn1 [Example 16, 5-Amino-4-[4-(1,4-benzodioxan-5-yl)piperazin-1-ylmethyl]-3-cyclopropyl-1-(2-pyridyl)pyrazole] | 4.1 | 100 | 9.7 | 35 | 85 |  |  | 
Cc1ccccc1N1CCN(CC2(C)N=C(c3ccccc3)NC2=O)CC1 (stereo not shown) [Example 43, 4-Methyl-4-[4-(2-methylphenyl)piperazin-1-ylmethyl]-2-phenyl-2-imidazolin-5-one] | 276 | 93 | 33 | > 500 | > 500 |  |  | 
N#Cc1ccc(-n2nc(C3CC3)c(CN3CCN(c4cccc5c4OCCO5)CC3)c2N)cc1 [Example 32, 4-{5-Amino-4-[4-(1,4-benzodioxan-5-yl)piperazin-1-ylmethyl]-3-cyclopropylpyrazol-1-yl}benzonitrile] | 129 | 91 |  | 44 | 320 | 92 |  | 

Results, then the compound that gave them:

Ki (5-HT1A receptors) [nM] | inhibition at 1 µM (α2A-adrenoceptors) [%] | Ki (α2D-adrenoceptors) [nM] | Ki (α1-adrenoceptors) [nM] | Ki (D2 dopamine receptors) [nM] | inhibition at 1 µM (α2D-adrenoceptors) [%] | inhibition at 1 µM (5-HT1A receptors; 10^-6 M, [3H]8-OH-DPAT, read-out: % displacement at 10^-6 M, 5-HT1A) [%] | % displacement at 10^-6 M, α1 (α1-adrenoceptors; 10^-6 M, 7-methoxy-[3H]prazosin, 1 µM) [%] | Structure (SMILES)
19 | 99 | 192 | 41 | > 500 |  |  |  | Nc1c(CN2CCN(c3cccc4c3OCCO4)CC2)c(-c2ccccc2)nn1-c1ccccc1 [Example 12, 5-Amino-4-[4-(1,4-benzodioxan-5-yl)piperazin-1-ylmethyl]-1,3-diphenylpyrazole]
15 | 100 | 8.9 | 9.9 | 185 |  |  |  | Nc1c(CN2CCN(c3cccc4c3OCCO4)CC2)c(C2CC2)nn1Cc1ccccc1 [Example 26, 5-Amino-4-[4-(1,4-benzodioxan-5-yl)piperazin-1-ylmethyl]-1-benzyl-3-cyclopropylpyrazole]
134 | 66 | 127 | 396 | 297 |  |  |  | COc1ccccc1N1CCN(CC2(C)N=C(c3cccnc3)NC2=O)CC1 (stereo not shown) [Example 36, 4-[4-(2-methoxyphenyl)piperazin-1-ylmethyl]-4-methyl-2-(3-pyridyl)-2-imidazolin-5-one]
15 | 76 |  | > 500 | 345 | 54 |  |  | C=CCN1C(=O)C(C)(CN2CCN(c3cccc4c3OCCO4)CC2)N=C1c1cccnc1 (stereo not shown) [Example 44, 1-allyl-4-[4-(1,4-benzodioxan-5-yl)piperazin-1-ylmethyl]-4-methyl-2-(3-pyridyl)-2-imidazolin-5-one]
34 | 100 |  | 50 | > 500 | 96 |  |  | Nc1c(CN2CCN(c3cccc4c3OCCO4)CC2)c(C2CCC2)nn1-c1ccccc1 [Example 29, 5-Amino-4-[4-(1,4-benzodioxan-5-yl)piperazin-1-ylmethyl]-3-cyclobutyl-1-phenylpyrazole]
93 | 69 | 112 | 271 | 268 |  |  |  | COc1ccccc1N1CCN(CC2(C)N=C(c3ccccc3)NC2=O)CC1 (stereo not shown) [Example 37, 4-[4-(2-methoxyphenyl)piperazin-1-ylmethyl]-4-methyl-2-phenyl-2-imidazolin-5-one]
 | 100 |  |  | > 500 | 96 | 98 | 94 | Nc1c(CN2CCN(c3cccc4c3OCCO4)CC2)c(C2CC2)nn1-c1ccccc1Cl [Example 33, 5-Amino-4-[4-(1,4-benzodioxan-5-yl)piperazin-1-ylmethyl]-1-(2-chlorophenyl)-3-cyclopropylpyrazole]
224 | 57 | > 500 | > 500 | 129 |  |  |  | CC1(CN2CCN(c3cccc(C(F)(F)F)c3)CC2)N=C(c2ccccc2)NC1=O (stereo not shown) [Example 41, 4-Methyl-2-phenyl-4-{4-[3-(trifluoromethyl)phenyl]piperazin-1-ylmethyl}-2-imidazolin-5-one]
